Reference: US20200408775A1, “APPARATUS AND METHOD FOR MULTIPLEXED PROTEIN QUANTIFICATION” (BIOMOTIF AB, priority 2018, published 2020)

Test system: Human Colon Carcinoma Cells HCT116
Test: Proteome changes in protein abundance upon drug treatment, 3-channel pI-multiplexing LC MS/MS
Format: cell-based
Conditions: 45 nM Methotrexate for 48 h vs 0.01% DMSO control, p<0.05, 570 proteins quantified, 3 biological replicates
Protocol: A three-channel isoelectric point-based multiplexing was applied for the analysis of proteome changes in protein abundance upon drug treatment, using the following procedure:
Human Colon Carcinoma Cells HCT116 were cultured at 37° C. with 5% CO2 in high-glucose Dulbecco's Modified Eagle's Medium (DMEM, Thermo Fisher Scientific) supplemented with 10% fetal bovine serum (Gibco) and 1% penicillin/streptomycin (Gibco). The cells were treated for 48 h with 45 nM Methotrexate in 0.01% dimethyl sulfoxide (DMSO). As a control experiment, cells were treated with 0.01% DMSO. The medium containing the drug (or 0.01% DMSO for the control) was replaced each 24 h by fresh medium. A total of 3 control samples and 3 treated samples were produced.
Cells (1 million cells per replicate sample) were washed twice with PBS (1 mL) and resuspended in 300 μL of lysis buffer (3% SDC, 20 mM EPPS, pH 8.5). The total protein concentration was measured using the BCA protein assay kit (Pierce) in accordance with the manufacturer's protocol. […]
6. Samples were analyzed together within MaxQuant (1% FDR and match between runs) and Quanty quantification software (1% FDR). Isoelectric point calculations were in-silico calculated as described in Pirmoradian M et al 2014. Proteins containing at least 1 peptide on each pI-channel were selected for quantification.

Question: For `CN(Cc1cnc2nc(N)nc(N)c2n1)c1ccc(C(=O)N[C@@H](CCC(=O)O)C(=O)O)cc1` [Methotrexate], which “number of proteins that demonstrated a statistical difference between the control and treated” value is on record?
Answer: 4
